Assay results from PubChem BioAssay (NCI).
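The concentration for 50% growth inhibition is given as GI50. TGI denotes the concentration required for complete inhibition of growth.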

What was measured:
Test in all cases: DTP human tumour cell line panel, 384-well format
[1] = test system: OVCAR-8 ovarian
[2] = test system: SF-268 CNS
[3] = test system: HCT-15 colon
[4] = test system: 786-0 renal
[5] = test system: DU-145 prostate
[6] = test system: OVCAR-4 ovarian
[7] = test system: SK-MEL-2 melanoma
[8] = test system: HOP-62 NSCLC
[9] = test system: RPMI-8226 leukemia
[10] = test system: HT29 colon
[11] = test system: PC-3 prostate
[12] = test system: OVCAR-5 ovarian
[13] = test system: HOP-92 NSCLC
[14] = test system: CAKI-1 renal
[15] = test system: MDA-MB-231 breast
[16] = test system: UACC-62 melanoma
[17] = test system: IGROV1 ovarian
[18] = test system: COLO 205 colon
[19] = test system: A549 NSCLC
[20] = test system: KM12 colon
[21] = test system: A498 renal
[22] = test system: RXF 393 renal
[23] = test system: UACC-257 melanoma
[24] = test system: U251 glioblastoma
[25] = test system: SNB-75 CNS
[26] = test system: OVCAR-3 ovarian
[27] = test system: HS 578T breast
[28] = test system: SF-539 CNS
[29] = test system: SR leukemia
[30] = test system: TK-10 renal
[31] = test system: NCI-H23 lung
[32] = test system: LOX IMVI melanoma
[33] = test system: MDA-MB-468 breast
[34] = test system: SK-OV-3 ovarian
[35] = test system: SN12C renal
[36] = test system: SK-MEL-28 melanoma
[37] = test system: ACHN renal
[38] = test system: T-47D breast
[39] = test system: MCF7 breast
[40] = test system: CCRF-CEM leukemia
[41] = test system: NCI-H460 NSCLC
[42] = test system: BT-549 breast
[43] = test system: HL-60(TB) leukemia
[44] = test system: MOLT-4 leukemia
[45] = test system: HCT-116 colon
[46] = test system: SW-620 colon
[47] = test system: NCI/ADR-RES ovarian

CCc1c(C#N)c(SC(C(N)=O)c2ccccc2)nc(N2CCC(N)CC2)c1C#N (centres undefined)
GI50 [1]: 15.6 µM | TGI [1]: 29.1 µM | GI50 [2]: 13.5 µM | TGI [2]: 26.4 µM | GI50 [3]: 17.3 µM | TGI [3]: 31.3 µM | GI50 [4]: 11.7 µM | TGI [4]: 24 µM | GI50 [5]: 3.33 µM | TGI [5]: 12.4 µM | GI50 [6]: 13.7 µM | TGI [6]: 26.6 µM | GI50 [7]: 12 µM | TGI [7]: 24.4 µM | GI50 [8]: 4.92 µM | TGI [8]: 16.3 µM | GI50 [9]: 0.201 µM | TGI [9]: 1.38 µM | GI50 [10]: 16.9 µM | TGI [10]: 30.7 µM | GI50 [11]: 11.2 µM | TGI [11]: 23.4 µM | GI50 [12]: 16.1 µM | TGI [12]: 29.6 µM | GI50 [13]: 13 µM | TGI [13]: 25.7 µM | GI50 [14]: 13 µM | TGI [14]: 25.8 µM | GI50 [15]: 16.2 µM | TGI [15]: 29.8 µM | GI50 [16]: 6.36 µM | TGI [16]: 19.7 µM | GI50 [17]: 15 µM | TGI [17]: 28.3 µM | GI50 [18]: 3.42 µM | TGI [18]: 17.4 µM | GI50 [19]: 14.4 µM | TGI [19]: 27.7 µM | GI50 [20]: 11.2 µM | TGI [20]: 23.4 µM | GI50 [21]: 12.9 µM | TGI [21]: 25.6 µM | GI50 [22]: 16.2 µM | TGI [22]: 29.8 µM | GI50 [23]: 2.22 µM | TGI [23]: 5.18 µM | GI50 [24]: 12.5 µM | TGI [24]: 25.1 µM | GI50 [25]: 14.9 µM | TGI [25]: 28.2 µM | GI50 [26]: 0.44 µM | TGI [26]: 6.5 µM | GI50 [27]: 14.4 µM | TGI [27]: 27.6 µM | GI50 [28]: 6.59 µM | TGI [28]: 19.3 µM | GI50 [29]: 3.45 µM | TGI [29]: 11.8 µM | GI50 [30]: 17.5 µM | TGI [30]: 31.4 µM | GI50 [31]: 11.5 µM | TGI [31]: 23.7 µM | GI50 [32]: 11.4 µM | TGI [32]: 23.7 µM | GI50 [33]: 8.13 µM | TGI [33]: 20.4 µM | GI50 [34]: 17.9 µM | TGI [34]: 31.9 µM | GI50 [35]: 11.5 µM | TGI [35]: 23.7 µM | GI50 [36]: 7.46 µM | TGI [36]: 20.1 µM | GI50 [37]: 14.9 µM | TGI [37]: 28.2 µM | GI50 [38]: 14.8 µM | TGI [38]: 28 µM | GI50 [39]: 5.36 µM | TGI [39]: 17.7 µM | GI50 [40]: 6.52 µM | TGI [40]: 19 µM | GI50 [41]: 11.2 µM | TGI [41]: 23.5 µM | GI50 [42]: 10.3 µM | TGI [42]: 22.1 µM | GI50 [43]: 2.29 µM | TGI [43]: 9.95 µM | GI50 [44]: 4.95 µM | TGI [44]: 15.4 µM | GI50 [45]: 1.84 µM | TGI [45]: 14.5 µM | GI50 [46]: 14.7 µM | TGI [46]: 28.1 µM | GI50 [47]: 66.6 µM | TGI [47]: > 100 µM
